Measurements reported in US20250136606A1, “MODULATORS OF TRPML, THEIR COMPOSITIONS AND METHODS OF USE” (Caraway Therapeutics, Inc., priority 2021, published 2025).
Values belong to the compound of their own block, whether it stands above or below them.

Columns and labels:
Format in all cases: cell-based
TRPML1 = TRPML1 (Homo sapiens, UniProt Q9GZU1); test: Fluorescent TRPML1 assay (Fluo4-AM calcium fluorescence in doxycycline-induced HEK-293 Trex cells)
How it was run: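 First, expression of surface-targeted mutant human TRPML1 is induced in HEK-293 Trex cells with 0.5 ug/mL doxycycline the day before. Next, cells take up 1 micromolar Fluo4-AM in Ringer's with 0.1% Pluronic. Finally, they are added to compounds (6 nanomolar–20 micromolar final) in 10 mM calcium Ringer's and fluorescence is read.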

TRPML3 = target: T1, TRPML3 (Homo sapiens, UniProt Q8TDD5); test: Fluorescent TRPML3 assay (performed as for TRPML1, substituting the TRPML3 subtype)
T1 construct: expressed in transfected cells
T1 sequence (Q8TDD5 1-553): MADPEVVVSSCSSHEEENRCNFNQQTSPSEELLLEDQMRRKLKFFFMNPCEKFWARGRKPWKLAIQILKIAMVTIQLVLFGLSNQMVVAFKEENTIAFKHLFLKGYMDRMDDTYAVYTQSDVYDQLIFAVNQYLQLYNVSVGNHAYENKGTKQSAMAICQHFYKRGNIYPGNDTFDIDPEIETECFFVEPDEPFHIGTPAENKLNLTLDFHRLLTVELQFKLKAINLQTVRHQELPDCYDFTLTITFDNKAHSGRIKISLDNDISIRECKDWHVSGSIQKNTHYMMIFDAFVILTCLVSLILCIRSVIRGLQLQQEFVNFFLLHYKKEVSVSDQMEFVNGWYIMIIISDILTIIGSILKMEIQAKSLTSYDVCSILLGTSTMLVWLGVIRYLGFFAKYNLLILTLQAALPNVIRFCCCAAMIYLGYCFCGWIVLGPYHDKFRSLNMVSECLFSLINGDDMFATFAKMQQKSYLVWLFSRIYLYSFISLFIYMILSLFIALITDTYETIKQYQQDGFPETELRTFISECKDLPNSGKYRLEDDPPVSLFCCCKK
How it was run: (§1)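 HEK-293 Trex, dox-induced (0.5 ug/mL), mutated for surface expression. Fluo4-AM 1 micromolar load ~60 min, dark; buffer modified Ringer's, 10 mM Ca. Cpds 20 micromolar–6 nanomolar final, half-log, n=3. Read ex 480/em 540; % activity vs controls; EC50 nonlinear fit.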

TRPML2 = target: T2, TRPML2 (Homo sapiens, UniProt Q8IZK6); test: Fluorescent TRPML2 assay (performed as for TRPML1, substituting the TRPML2 subtype)
T2 construct: expressed in transfected cells
T2 sequence (Q8IZK6 1-566): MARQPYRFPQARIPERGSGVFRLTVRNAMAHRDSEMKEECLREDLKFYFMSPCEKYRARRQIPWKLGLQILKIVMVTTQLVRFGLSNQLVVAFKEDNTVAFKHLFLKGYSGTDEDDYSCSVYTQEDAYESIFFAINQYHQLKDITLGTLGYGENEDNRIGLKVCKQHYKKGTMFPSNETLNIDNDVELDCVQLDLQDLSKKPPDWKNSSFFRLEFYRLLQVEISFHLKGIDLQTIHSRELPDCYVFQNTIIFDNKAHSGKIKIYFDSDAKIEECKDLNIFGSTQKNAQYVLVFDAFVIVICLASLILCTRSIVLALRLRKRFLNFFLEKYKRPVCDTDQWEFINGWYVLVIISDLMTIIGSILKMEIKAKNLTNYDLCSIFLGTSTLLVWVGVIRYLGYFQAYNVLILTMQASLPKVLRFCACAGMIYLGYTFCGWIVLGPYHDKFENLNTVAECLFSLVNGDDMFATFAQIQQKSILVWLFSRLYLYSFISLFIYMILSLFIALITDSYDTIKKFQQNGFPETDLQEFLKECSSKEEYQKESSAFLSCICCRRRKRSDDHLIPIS
How it was run: as §1

TRPML1, sequence (Q9GZU1 whole entry L15A/L16A/L577A/L578A, form open): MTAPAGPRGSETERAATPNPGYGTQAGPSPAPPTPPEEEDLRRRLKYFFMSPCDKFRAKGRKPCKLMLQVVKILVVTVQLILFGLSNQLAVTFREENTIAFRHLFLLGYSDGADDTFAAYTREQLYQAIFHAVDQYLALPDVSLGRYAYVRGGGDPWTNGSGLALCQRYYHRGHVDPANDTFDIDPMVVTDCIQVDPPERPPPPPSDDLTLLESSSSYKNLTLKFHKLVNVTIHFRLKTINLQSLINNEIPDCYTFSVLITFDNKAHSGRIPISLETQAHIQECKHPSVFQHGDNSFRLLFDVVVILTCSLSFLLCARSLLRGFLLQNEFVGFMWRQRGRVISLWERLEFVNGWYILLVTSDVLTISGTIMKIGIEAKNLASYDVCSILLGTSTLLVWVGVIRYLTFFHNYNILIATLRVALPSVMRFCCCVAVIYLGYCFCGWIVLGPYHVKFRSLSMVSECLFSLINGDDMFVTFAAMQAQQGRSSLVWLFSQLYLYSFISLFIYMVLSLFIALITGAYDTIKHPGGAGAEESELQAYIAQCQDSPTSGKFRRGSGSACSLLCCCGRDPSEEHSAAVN

EC50 (TRPML1): < 0.1 µM
EC50 (TRPML3): < 0.1 µM
EC50 (TRPML2): < 0.1 µM
Structure (SMILES): CC1CC1c1cn(-c2cc(C#N)ccn2)c2ncnc(N3CCN(C(=O)OC(C)(C)C)C[C@@H]3C)c12 (stereo partly drawn) [Compound 615, tert-butyl (3S)-4-(7-(4-cyanopyridin-2-yl)-5-(2-methylcyclopropyl)-7H-pyrrolo[2,3-d]pyrimidin-4-yl)-3-methylpiperazine-1-carboxylate]

EC50 (TRPML1): < 0.1 µM
EC50 (TRPML3): 0.1 to 0.5 µM
EC50 (TRPML2): > 2 µM
Structure (SMILES): C[C@@H]1CN(c2ncnc3c2c(CC(F)(F)F)cn3-c2nccc(C#N)n2)[C@@H](C)CN1C(=O)OC(C)(C)C [Compound 617, tert-butyl (2R,5S)-4-(7-(4-cyanopyrimidin-2-yl)-5-(2,2,2-trifluoroethyl)-7H-pyrrolo[2,3-d]pyrimidin-4-yl)-2,5-dimethylpiperazine-1-carboxylate]

EC50 (TRPML1): < 0.1 µM
EC50 (TRPML3): < 0.1 µM
EC50 (TRPML2): 0.1 to 0.5 µM
Structure (SMILES): C[C@@H]1CN(c2ncnc3c2c(CC(F)(F)F)cn3-c2cc(C#N)ncn2)[C@@H](C)CN1C(=O)OC(C)(C)C [Compound 618, tert-butyl (2R,5S)-4-(7-(6-cyanopyrimidin-4-yl)-5-(2,2,2-trifluoroethyl)-7H-pyrrolo[2,3-d]pyrimidin-4-yl)-2,5-dimethylpiperazine-1-carboxylate]

EC50 (TRPML1): < 0.1 µM
EC50 (TRPML3): < 0.1 µM
EC50 (TRPML2): 0.5 to 2 µM
Structure (SMILES): C[C@@H]1CN(c2ncnc3c2c(CC(F)(F)F)cn3-c2cc(C#N)ccn2)[C@@H](C)CN1C(=O)OC(C)(C)C [Compound 619]

EC50 (TRPML1): < 0.1 µM
EC50 (TRPML3): < 0.1 µM
EC50 (TRPML2): 0.1 to 0.5 µM
Structure (SMILES): C[C@@H]1CN(c2nccc3c2c(C(F)(F)F)cn3-c2cc(C#N)ccn2)[C@@H](C)CN1C(=O)OC(C)(C)C [Compound 620, tert-butyl (2R,5S)-4-(1-(4-cyanopyridin-2-yl)-3-(trifluoromethyl)-1H-pyrrolo[3,2-c]pyridin-4-yl)-2,5-dimethylpiperazine-1-carboxylate]

EC50 (TRPML1): 0.1 to 0.5 µM
EC50 (TRPML3): 0.1 to 0.5 µM
EC50 (TRPML2): > 2 µM
Structure (SMILES): C[C@@H]1CN(c2nccc3c2c(C(F)F)cn3-c2cc(C#N)ccn2)[C@@H](C)CN1C(=O)OC(C)(C)C [Compound 624, tert-butyl (2R,5S)-4-(1-(4-cyanopyridin-2-yl)-3-(difluoromethyl)-1H-pyrrolo[3,2-c]pyridin-4-yl)-2,5-dimethylpiperazine-1-carboxylate]

EC50 (TRPML1): 0.5 to 2 µM
EC50 (TRPML3): 0.1 to 0.5 µM
EC50 (TRPML2): > 2 µM
Structure (SMILES): C[C@@H]1CN(c2ncnc3c2c(C(F)(F)F)cn3C2CCCC(C#N)C2)[C@@H](C)CN1C(=O)OC(C)(C)C (stereo partly drawn) [Compound 629, tert-butyl (2R,5S)-4-(7-(3-cyanocyclohexyl)-5-(trifluoromethyl)-7H-pyrrolo[2,3-d]pyrimidin-4-yl)-2,5-dimethylpiperazine-1-carboxylate]

EC50 (TRPML1): < 0.1 µM
EC50 (TRPML3): 0.1 to 0.5 µM
EC50 (TRPML2): 0.1 to 0.5 µM
Structure (SMILES): C[C@@H]1CN(c2ncnc3c2c(N2CCC2)cn3-c2cccc(F)c2)[C@@H](C)CN1C(=O)OC(C)(C)C [Compound 635, tert-butyl (2R,5S)-4-(5-(azetidin-1-yl)-7-(3-fluorophenyl)-7H-pyrrolo[2,3-d]pyrimidin-4-yl)-2,5-dimethylpiperazine-1-carboxylate]

EC50 (TRPML1): < 0.1 µM
EC50 (TRPML3): < 0.1 µM
EC50 (TRPML2): 0.1 to 0.5 µM
Structure (SMILES): C[C@H]1CN(C(=O)OC(C)(C)C)CCN1c1nccc2c1c(N1CCC1)cn2-c1cccc(F)c1 [Compound 637, tert-butyl (S)-4-(3-(azetidin-1-yl)-1-(3-fluorophenyl)-1H-pyrrolo[3,2-c]pyridin-4-yl)-3-methylpiperazine-1-carboxylate]

EC50 (TRPML1): < 0.1 µM
EC50 (TRPML3): < 0.1 µM
EC50 (TRPML2): < 0.1 µM
Structure (SMILES): C[C@H]1CN(C(=O)OC(C)(C)C)CCN1c1ncnc2c1c(C1CCC1)cn2-c1cccc(F)c1 [Compound 641, tert-butyl (S)-4-(5-cyclobutyl-7-(3-fluorophenyl)-7H-pyrrolo[2,3-d]pyrimidin-4-yl)-3-methylpiperazine-1-carboxylate]

EC50 (TRPML1): 0.1 to 0.5 µM
EC50 (TRPML3): 0.1 to 0.5 µM
EC50 (TRPML2): 0.5 to 2 µM
Structure (SMILES): C[C@@H]1CN(c2ncnc3c2c(C2CC2)cn3-c2ccccn2)[C@@H](C)CN1C(=O)OC(C)(C)C [Compound 643, tert-butyl (2R,5S)-4-(5-cyclopropyl-7-(pyridin-2-yl)-7H-pyrrolo[2,3-d]pyrimidin-4-yl)-2,5-dimethylpiperazine-1-carboxylate]

The next lines start with the compound.

Structure (SMILES): C[C@@H]1CN(c2ncnc3c2c(C(F)F)cn3-c2cc(C#N)ccn2)[C@@H](C)CN1C(=O)OC1(C(F)(F)F)CCC1 [Compound 614, 1-(trifluoromethyl)cyclobutyl (2R,5S)-4-(7-(4-cyanopyridin-2-yl)-5-(difluoromethyl)-7H-pyrrolo[2,3-d]pyrimidin-4-yl)-2,5-dimethylpiperazine-1-carboxylate]
EC50 (TRPML1): < 0.1 µM
EC50 (TRPML3): < 0.1 µM
EC50 (TRPML2): 0.1 to 0.5 µM

Structure (SMILES): CC1CC1c1cn(-c2cccc(C#N)c2)c2ncnc(N3CCN(C(=O)OC(C)(C)C)C[C@@H]3C)c12 (stereo partly drawn) [Compound 616]
EC50 (TRPML1): < 0.1 µM
EC50 (TRPML3): < 0.1 µM
EC50 (TRPML2): < 0.1 µM

Structure (SMILES): [2H]C([2H])([2H])C(OC(=O)N1C[C@H](C)N(c2nccc3c2c(C(F)(F)F)cn3-c2cc(C#N)ccn2)C[C@H]1C)(C([2H])([2H])[2H])C([2H])([2H])[2H] [Compound 623, 2-(methyl-d3)propan-2-yl-1,1,1,3,3,3-d6 (2R,5S)-4-(1-(4-cyanopyridin-2-yl)-3-(trifluoromethyl)-1H-pyrrolo[3,2-c]pyridin-4-yl)-2,5-dimethylpiperazine-1-carboxylate]
EC50 (TRPML1): < 0.1 µM
EC50 (TRPML3): < 0.1 µM
EC50 (TRPML2): 0.5 to 2 µM

Structure (SMILES): C[C@@H]1CN(c2ncnc3c2c(C(F)(F)F)cn3C2CCCCC2)[C@@H](C)CN1C(=O)OC(C)(C)C [Compound 625, tert-butyl (2R,5S)-4-(7-cyclohexyl-5-(trifluoromethyl)-7H-pyrrolo[2,3-d]pyrimidin-4-yl)-2,5-dimethylpiperazine-1-carboxylate]
EC50 (TRPML1): 0.1 to 0.5 µM
EC50 (TRPML3): > 2 µM
EC50 (TRPML2): > 2 µM

Structure (SMILES): C[C@@H]1CN(c2ncnc3c2c(C(F)F)cn3C2CCCCC2)[C@@H](C)CN1C(=O)OC(C)(C)C [Compound 627, tert-butyl (2R,5S)-4-(7-cyclohexyl-5-(difluoromethyl)-7H-pyrrolo[2,3-d]pyrimidin-4-yl)-2,5-dimethylpiperazine-1-carboxylate]
EC50 (TRPML1): 0.1 to 0.5 µM
EC50 (TRPML3): 0.1 to 0.5 µM
EC50 (TRPML2): > 2 µM

Structure (SMILES): C[C@@H]1CN(c2ncnc3c2c(C(F)F)cn3C2CCCC(C#N)C2)[C@@H](C)CN1C(=O)OC(C)(C)C (stereo partly drawn) [Compound 633, tert-butyl (2R,5S)-4-(7-(3-cyanocyclohexyl)-5-(difluoromethyl)-7H-pyrrolo[2,3-d]pyrimidin-4-yl)-2,5-dimethylpiperazine-1-carboxylate]
EC50 (TRPML1): 0.5 to 2 µM
EC50 (TRPML3): 0.5 to 2 µM
EC50 (TRPML2): > 2 µM

Structure (SMILES): C[C@H]1CN(C(=O)OC(C)(C)C)CCN1c1ncnc2c1c(N1CCC1)cn2-c1cccc(F)c1 [Compound 636, tert-butyl (S)-4-(5-(azetidin-1-yl)-7-(3-fluorophenyl)-7H-pyrrolo[2,3-d]pyrimidin-4-yl)-3-methylpiperazine-1-carboxylate]
EC50 (TRPML1): < 0.1 µM
EC50 (TRPML3): < 0.1 µM
EC50 (TRPML2): < 0.1 µM

Structure (SMILES): C[C@@H]1CN(c2nccc3c2c(N2CCC2)cn3-c2cccc(F)c2)[C@@H](C)CN1C(=O)OC(C)(C)C [Compound 638]
EC50 (TRPML1): < 0.1 µM
EC50 (TRPML3): < 0.1 µM
EC50 (TRPML2): 0.1 to 0.5 µM

Structure (SMILES): COc1ccnc(-n2cc(C3CC3)c3c(N4C[C@@H](C)N(C(=O)OC(C)(C)C)C[C@@H]4C)ncnc32)c1 [Compound 642, tert-butyl (2R,5S)-4-(5-cyclopropyl-7-(4-methoxypyridin-2-yl)-7H-pyrrolo[2,3-d]pyrimidin-4-yl)-2,5-dimethylpiperazine-1-carboxylate]
EC50 (TRPML1): 0.1 to 0.5 µM
EC50 (TRPML3): 0.1 to 0.5 µM
EC50 (TRPML2): 0.5 to 2 µM
